Assay results as given in ChEMBL document CHEMBL3797109, “Biochemometrics for Natural Products Research: Comparison of Data Analysis Approaches and Application to Identification of Bioactive Compounds” (2016).
In brackets after ≈: the same amount, converted by molar mass.

Tests used:
Staphylococcus aureus [1] = test: Antimicrobial activity against Staphylococcus aureus SA1199 after 24 hrs by CLSI method; assay type: functional; conditions: SA1199, 24 h
Staphylococcus aureus [2] = test: Antimicrobial activity against methicillin-resistant Staphylococcus aureus USA300 LAC AH1263 after 24 hrs by CLSI method; assay type: functional; conditions: USA300 LAC AH1263, 24 h

| SMILES | MIC (Staphylococcus aureus [1]) | MIC (Staphylococcus aureus [2]) |
| --- | --- | --- |
| C[C@@H]1OC(=O)/C=C/[C@@H](O)[C@H](C)OC(=O)C[C@H](C)OC(=O)/C=C/[C@H]1O | 219 µM (≈ 75 µg/mL) |  |
| COc1cc(O)c2c(=O)oc3cc(O)cc(C)c3c2c1 | 275 µM (≈ 74.9 µg/mL) |  |
| COc1ccc2cc3[n+](cc2c1OC)CCc1cc2c(cc1-3)OCO2 [BERBERINE] | 446 µM | 446 µM |
